Test results published in patent US8431514B2, “4-cyano-3-benzoylamino-N-phenyl-benzamides for use in pest control” (Syngenta Crop Protection LLC, priority 2009, dated 2013).

Assays:
Format in all cases: in vivo
Spodoptera littoralis = Spodoptera littoralis (Egyptian cotton leafworm) leaf disc spray test; details: foliar, 72 h, application rate 200 ppm, cotton leaf discs, 5 L1 larvae, mortality, feeding behavior and growth regulation 3 days after treatment
Description: (§1) These Examples illustrate the insecticidal and acaricidal properties of the compounds of formula (I). The tests were performed as follows:
(§2) Cotton leaf discs were placed on agar in a 24-well microtiter plate and sprayed with test solutions at an application rate of 200 ppm. After drying, the leaf discs were infested with 5 L1 larvae. The samples were checked for mortality, feeding behavior, and growth regulation 3 days after treatment (DAT). The following compound gave at least 80% control of Spodoptera littoralis: A1, A2, A3, A4, A5, A6, A7, A8, A9, A10, A11, A12, A14, A15, A16, A17, A18, A19, A20. Heliothis Virescens (Tobacco Budworm): Eggs (0-24 h old) were placed in 24-well microtiter plate on artificial diet and treated with test solutions at an application rate of 200 ppm (concentration in well 18 ppm) by pipetting. After an incubation period of 4 days, samples were checked for egg mortality, larval mortality, and growth regulation. The following compound gave at least 80% control of Heliothis virescens: A1, A2, A3, A4, A5, A6, A7, A8, A9, A10, A11, A12, A14, A15, A16, A17, A18, A19, A20. Plutella Xylostella (Diamond Back Moth): 24-well microtiter plate (MTP) with artificial diet was treated with test solutions at an application rate of 200 ppm (concentration in well 18 ppm) by pipetting. After drying, the MTP's were infested with L2 larvae (7-12 per well). After an incubation period of 6 days, samples were checked for larval mortality and growth regulation. The following compound gave at least 80% control of Plutella xylostella: A1, A2, A3, A4, A5, A6, A7, A8, A9, A10, A11, A12, A13, A14, A15, A16, A17, A18, A19, A20. Diabrotica Balteata (Corn Root Worm): A 24-well microtiter plate (MTP) with artificial diet was treated with test solutions at an application rate of 200 ppm (concentration in well 18 ppm) by pipetting. After drying, the MTP's were infested with L2 larvae (6-10 per well). After an incubation period of 5 days, samples were checked for larval mortality and growth regulation. The following compound gave at least 80% control of Diabrotica balteata: A1, A2, A3, A4, A5, A6, A7, A8, A9, A10, A11, A12, A13, A14, A16, A17, A18, A19, A20. Thrips Tabaci (Onion Thrips): Sunflower leaf discs were placed on agar in a 24-well microtiter plate and sprayed with test solutions at an application rate of 200 ppm. After drying, the leaf discs were infested with an […] population of mixed ages. After an incubation period of 7 days, samples were checked for mortality. The following compounds gave at least 80% control of Thrips tabaci: A1, A2, A3, A4, A5, A6, A7, A8, A9, A10, A14, A16, A17, A18, A19, A20. Tetranychus Urticae (Two-Spotted Spider Mite): Bean leaf discs on agar in 24-well microtiter plates were sprayed with test solutions at an application rate of 200 ppm. After drying, the leaf discs are infested with mite populations of mixed ages. 8 days later, discs are checked for egg mortality, larval mortality, and adult mortality. The following compounds gave at least 80% control of Tetranychus urticae: A1, A2, A3, A4, A5, A6, A7, A8, A9, A10, A11, A12, A13, A14, A15, A16, A17, A19, A20.

Heliothis virescens = Heliothis virescens (tobacco budworm) egg test on artificial diet; details: 96 h, application rate 200 ppm (concentration in well 18 ppm), eggs 0-24 h old on artificial diet, egg mortality, larval mortality and growth regulation after 4 days
Description: as §1, §2

Plutella xylostella = Plutella xylostella (diamond back moth) artificial diet test; details: 144 h, application rate 200 ppm (concentration in well 18 ppm), L2 larvae, larval mortality and growth regulation after 6 days
Description: as §1, §2

Diabrotica balteata = Diabrotica balteata (corn root worm) artificial diet test; details: 120 h, application rate 200 ppm (concentration in well 18 ppm), L2 larvae, larval mortality and growth regulation after 5 days
Description: as §1, §2

Thrips tabaci = Thrips tabaci (onion thrips) sunflower leaf disc spray test; details: foliar, 168 h, application rate 200 ppm, sunflower leaf discs, population of mixed ages, mortality after 7 days
Description: as §1, §2

Tetranychus urticae = Tetranychus urticae (two-spotted spider mite) bean leaf disc spray test; details: foliar, 192 h, application rate 200 ppm, bean leaf discs, mite populations of mixed ages, egg, larval and adult mortality 8 days later, read-out: control of Tetranychus urticae
Description: as §1, §2

Measured: pest or weed control at 200 ppm

CCc1cc(C(F)(C(F)(F)F)C(F)(F)C(F)(F)F)cc(C)c1NC(=O)c1ccc(C#N)c(NC(=O)c2ccc(C#N)cc2C)c1 (stereo not shown) [A1, 4-cyano-3-(4′-cyano-2′-methylbenzoylamino)-N-[2-ethyl-6-methyl-4-(1,2,2,3,3,3-hexafluoro-1-trifluoromethylpropyl)phenyl]benzamide]
≥ 80%: all assays above

Cc1cc(C#N)ccc1C(=O)Nc1c(C#N)ccc(C(=O)Nc2c(Cl)cc(C(F)(C(F)(F)F)C(F)(F)C(F)(F)F)cc2Cl)c1F (stereo not shown) [A18, 4-cyano-3-(4′-cyano-2′-methylbenzoylamino)-N-[2,6-dichloro-4-(1,2,2,3,3,3-hexafluoro-1-trifluoromethylpropyl)phenyl]-2-fluorobenzamide]
not listed: Tetranychus urticae
≥ 80%: all other assays above

COCc1cc(C(F)(C(F)(F)F)C(F)(F)C(F)(F)F)cc(C)c1NC(=O)c1ccc(C#N)c(NC(=O)c2ccc(C#N)cc2C)c1 (stereo not shown) [A9, 4-cyano-3-(4′-cyano-2′-methyl-benzoylamino)-N-[4-(1,2,2,3,3,3-hexafluoro-1-trifluoromethylpropyl)-2-methoxymethyl-6-methylphenyl]benzamide]
≥ 80%: all assays above

Cc1cc(C#N)ccc1C(=O)Nc1cc(C(=O)Nc2c(Cl)cc(C(F)(C(F)(F)F)C(F)(F)F)cc2Cl)ccc1C#N [A19, 4-cyano-3-(4′-cyano-2′-methylbenzoylamino)-N-[2,6-dichloro-4-(1,2,2,2-tetrafluoro-1-trifluoromethylethyl)phenyl]benzamide]
≥ 80%: all assays above

Cc1cc(C#N)ccc1C(=O)Nc1cc(C(=O)Nc2c(Cl)cc(C(F)(C(F)(F)F)C(F)(F)F)cc2Br)ccc1C#N [A20, 4-cyano-3-(4′-cyano-2′-methylbenzoylamino)-N-[2-bromo-6-chloro-4-(1,2,2,2-tetrafluoro-1-trifluoromethylethyl)phenyl]benzamide]
≥ 80%: all assays above

COc1cc(C(F)(C(F)(F)F)C(F)(F)C(F)(F)F)cc(C)c1NC(=O)c1ccc(C#N)c(NC(=O)c2ccc(C#N)cc2C)c1 (stereo not shown) [A11, 4-cyano-3-(4′-cyano-2′-methylbenzoylamino)-N-[2-methoxy-6-methyl-4-(1,2,2,3,3,3-hexafluoro-1-trifluoromethylpropyl)phenyl]benzamide]
not listed: Thrips tabaci
≥ 80%: all other assays above

Cc1cc(C#N)ccc1C(=O)Nc1cc(C(=O)Nc2c(Cl)cc(C(F)(C(F)(F)F)C(F)(F)C(F)(F)F)cc2C#N)ccc1C#N (stereo not shown) [A7, N-[2-chloro-6-cyano-4-(1,2,2,3,3,3-hexafluoro-1-trifluoromethylpropyl)-phenyl]-4-cyano-3-(4′-cyano-2′-methylbenzoylamino)benzamide]
≥ 80%: all assays above

Cc1cc(C#N)ccc1C(=O)Nc1c(C#N)ccc(C(=O)Nc2c(Cl)cc(C(F)(C(F)(F)F)C(F)(F)C(F)(F)F)cc2Br)c1F (stereo not shown) [A6, N-[2-bromo-6-chloro-4-(1,2,2,3,3,3-hexafluoro-1-trifluoromethylpropyl)-phenyl]-4-cyano-3-(4′-cyano-2′-methylbenzoylamino)-2-fluorobenzamide]
≥ 80%: all assays above

Cc1cc(C#N)ccc1C(=O)Nc1cc(C(=O)Nc2c(Br)cc(C(F)(C(F)(F)F)C(F)(F)C(F)(F)F)cc2Br)ccc1C#N (stereo not shown) [A4, 4-cyano-3-(4′-cyano-2′-methylbenzoylamino)-N-[2,6-dibromo-4-(1,2,2,3,3,3-hexafluoro-1-trifluoromethylpropyl)phenyl]benzamide]
≥ 80%: all assays above

Cc1cc(C#N)ccc1C(=O)Nc1cc(C(=O)Nc2c(Cl)cc(C(O)(C(F)(F)F)C(F)(F)F)cc2Br)ccc1C#N [A13, N-[2-bromo-6-chloro-4-[1,1,1,3,3,3-hexafluoropropan-2-ol)phenyl]-4-cyano-3-(4′-cyano-2′-methylbenzoylamino)benzamide]
≥ 80%: Plutella xylostella | Diabrotica balteata | Tetranychus urticae

Cc1cc(C#N)ccc1C(=O)Nc1cc(C(=O)Nc2c(C)cc(C(F)(C(F)(F)F)C(F)(F)C(F)(F)F)cc2C)ccc1C#N (stereo not shown) [A16, 4-cyano-3-(4′-cyano-2′-methyl-benzoylamino)-N-[2,6-dimethyl-4-(1,2,2,3,3,3-hexafluoro-1-trifluoromethylpropyl)phenyl]benzamide]
≥ 80%: all assays above

CCc1cc(C(O)(C(F)(F)F)C(F)(F)C(F)(F)F)cc(C)c1NC(=O)c1ccc(C#N)c(NC(=O)c2ccc(C#N)cc2C)c1 (stereo not shown) [A15, 4-cyano-3-(4′-cyano-2′-methyl-benzoylamino)-N-[2-ethyl-6-methyl-4-(2,2,3,3,3-pentafluoro-1-hydroxy-1-trifluoromethylpropyl)phenyl]benzamide]
≥ 80%: Spodoptera littoralis | Heliothis virescens | Plutella xylostella | Tetranychus urticae

Cc1cc(C#N)ccc1C(=O)Nc1cc(C(=O)Nc2c(Cl)cc(C(OC(=O)c3ccccc3)(C(F)(F)F)C(F)(F)F)cc2Br)ccc1C#N [A12, benzoic acid 1-{3-bromo-5-chloro-4-[4-cyano-3-(4-cyano-2-methyl-benzoylamino)benzoylamino]phenyl}-2,2,2-trifluoro-1-trifluoromethylethyl ester]
not listed: Thrips tabaci
≥ 80%: all other assays above
